How the values were obtained:
ALK(G1202R/L1196M) [1] = molecular target: T1, ALK(G1202R/L1196M) (Homo sapiens, UniProt Q9UM73, G1202R/L1196M); test: In vitro kinase inhibitory activity assay, Experimental method 1 (ADP-Glo); format: biochemical; details: final ATP 50 µM, read-out: Kinase half maximal inhibitory concentration IC50 ALK^G1202R/L1196M
T1 construct: purchased Carna
Protocol: (§1) The kinase inhibitory activity assays of the compounds against ALK, ALK^L1196M, ALK^G1202R, ALK^G1202R/L1196M, ROS1, and TRKB were conducted at Wuhan Heyan Biotechnology Co., Ltd. or Hefei PreceDo Biotechnology Co., Ltd.
(§2) Experimental materials: ALK Active, ALK(L1196M) Active, ALK(G1202R) Active, and ALK(G1202R/L1196M) Active were purchased from Carna; SRC Substrate was purchased from SignalChem; IGF1R tide was purchased from SignalChem; ADP-Glo Kinase Assay was purchased from Promega; Kinase assay buffer III was purchased from SignalChem; and Nivo multimode plate reader (PerkinElmer).
(§3) Each concentration of the compounds was further diluted 20-fold using 1X kinase buffer to prepare compound working solutions containing 5% DMSO. 1 µL of each concentration gradient working solution was added to a microplate, with duplicate wells set for each concentration. 2 µL of ALK enzyme (15 ng per well) and 2 µL of a mixture of substrate and ATP (25 µM ATP, 0.5 µg/µL SRC Substrate) were added to the microplate. […] The reaction system was placed at 25°C for 1 hour. After the reaction, 5 µL of ADP-Glo reagent was added to each well and reacted at 25°C for another 40 minutes. After the reaction, 10 µL of kinase detection reagent was added to each well and reacted at 25°C for 30 minutes. Chemiluminescence was then measured using the PerkinElmer Nivo multimode plate reader with an integration time of 0.5 seconds.
ALK (G1202R/L1196M) kinase inhibition assay method: The preparation method for the working solution of the test compound was the same as for the ALK kinase. […] The subsequent steps were the same as for ALK kinase.
(§4) The IC50 value could then be derived by performing a curve fit using a four-parameter logistic model (obtained using the "log(inhibitor) vs. response -- Variable slope" mode in GraphPad Prism).

TRKB [2] = molecular target: T2, TRKB (Homo sapiens, UniProt Q16620); test: as above; format: biochemical; details: read-out: Kinase half maximal inhibitory concentration IC50 TRKB
T2 construct: purchased Carna
Protocol: as §1, §2, §3
TRKB kinase inhibition assay method: The preparation method for the working solution of the test compound was the same as for the ALK kinase. 2 µL of TRKB (0.5 ng per well) and 4 µL of a mixture of substrate and ATP (5 µM ATP, 0.5 µM SRC Substrate) were added to the microplate. […] The subsequent steps were the same as for ALK kinase.
as §4

ALK(G1202R) = molecular target: T3, ALK(G1202R) (Homo sapiens, UniProt Q9UM73, G1202R); test: as above; format: biochemical; details: final ATP 50 µM, read-out: Kinase half maximal inhibitory concentration IC50 ALK^G1202R
T3 construct: purchased Carna
Protocol: as §1, §2, §3
ALK (G1202R) kinase inhibition assay method: The preparation method for the working solution of the test compound was the same as for the ALK kinase. […] The subsequent steps were the same as for ALK kinase.
as §4

ROS1 = ROS1 (Homo sapiens, UniProt P08922); test: as above; format: biochemical; details: read-out: Kinase half maximal inhibitory concentration IC50 ROS1
Protocol: as §1, §2
as §3, with “After the reaction, 10 µL of kinase detection reagent was added to each well and reacted at 25°C for 30 minutes.” left out, “seconds. […]” for “seconds.”

ALK(G1202R/L1196M) [3] = molecular target: T1, ALK(G1202R/L1196M); test: In vitro kinase inhibitory activity assay, Experimental method 2 (ADP-Glo); format: biochemical; details: Experimental method 2; ATP 5.0 µM, substrate IGF1; read-out: Kinase half maximal inhibitory concentration IC50 ALK^G1202R/L1196M
Protocol: as §1
(§5) Experimental materials: ALK (G1202R/L1196M) Active and TRKB were purchased from Carna; IGF1 was purchased from GenScript; PolyE4Y1 was purchased from SIGMA; ADP-Glo™ Reagent was purchased from Promega; ATP was purchased from Promega; Kinase Detection Reagent was purchased from Promega; microplate reader ( PerkinElmer).
Reaction system: ALK(G1202R/L1196M) reaction concentration 8.63 nM, ATP concentration 5.0 µM, substrate IGF1 concentration 0.2 µg/µL. ALK(G1202R/L1196M) kinase buffer was 40 mM Tris-HCl (pH 7.5) + 20 mM magnesium chloride + 0.1 mg/mL BSA + 50 µM DTT.
(§6) ALK(G1202R/L1196M) and TRKB detection method: 2 µL of kinase and 1 µL of compound were added to a 384-well plate; 2 µL of substrate/ATP mixture was added and incubated at room temperature in the dark for 60 minutes; 5 µL of ADP-Glo™ reagent was added and incubated at room temperature for 40 minutes; 10 µL of kinase detection reagent was added and incubated at room temperature for 30 minutes; the plate was read on a microplate reader, and luminescence was recorded (integration time set to 0.5 seconds).
as §4

TRKB [4] = molecular target: T2, TRKB; test: as above; format: biochemical; details: Experimental method 2; ATP 5.0 µM, substrate PolyE4Y1; read-out: Kinase half maximal inhibitory concentration IC50 TRKB
Protocol: as §1, §5
TRKB reaction concentration 4.47 nM, ATP concentration 5.0 µM, substrate PolyE4Y1 concentration 0.2 µg/µL. TRKB kinase buffer was 40 mM Tris-HCl (pH 7.5) + 20 mM magnesium chloride + 2.5 mM manganese chloride + 0.1mg/mL BSA+ 50 µM DTT.
as §6, §4

[5] = test system: Ba/F3-EML4-ALK-G1202R/L1196M; test: Anti-proliferative activity test on Ba/F3 cell lines (CellTiter-Glo); format: cell-based; details: for IC50: Ba/F3 EML4-ALK-G1202R-L1196M, 72 hours, read-out: Half maximal inhibitory concentration IC50 for cells Ba/F3-EML4-ALK-G1202R/L1196 M
Protocol: (§7) • (1) Cell culture: The cell lines were cultured in an incubator at 37°C with 5% CO2. Regular passaging was performed, and cells in the logarithmic growth phase were selected for plating; • (2) Preparation of compound storage plate: The test compounds were prepared into a 10 mM solution with DMSO (Stock Con.); The compounds were then prepared into a 1 mM solution with DMSO (Work Con.); 1 µL of the stock solution was mixed with 9 µL of DMSO to prepare a 10 µL work solution. • (3) Preparation of 1000× compound storage plate (tube): The compounds were 3-fold serially diluted from […] to the lowest concentration, for a total of 8 concentrations; • (4) Preparation of 20× compound working solution: 98 µL of cell culture medium was added to a flat-bottomed 96-well transparent drug plate. From the 1000× compound storage plate, 2 µL of the compound was pipetted into the cell culture medium in the 96-well transparent drug plate. In the solvent control, 2 µL of DMSO was added. After the compound or DMSO was added, the mixture was homogenized using a pipette. • (5) Cells were stained with trypan blue and viable cells were counted to ensure a cell viability of 90% or more. The cell concentration was adjusted to an appropriate concentration; • (6) 95 µL of cell suspension (2000 cells/well) was added to each well of the compound assay cell plate, and cell-free culture medium containing 0.1% DMSO was added to the Min control wells; • (7) Administration in the compound assay cell plate: 5 µL of 20× compound working solution was added to the cell culture plate, 5 µL of DMSO-cell culture medium mixture was added to the Max control wells, and the final concentration of DMSO was 0.1%; • (8) The culture plate was then incubated in an incubator at 37°C with 5% CO2 for 72 hours; • (9) The following operations were conducted in accordance with the instructions of the Promega CellTiter-Glo Luminescent Cell Viability Assay Kit (Promega-G7573): CellTiter-Glo buffer was thawed and brought to room temperature; CellTiter-Glo substrate was brought to room temperature; CellTiter-Glo buffer was added to a bottle of CellTiter-Glo substrate to dissolve the substrate, thereby preparing CellTiter-Glo working solution; The mixture was slowly vortexed and shaken to be fully dissolved; The cell culture plate was removed and allowed to equilibrate to room temperature for 10 minutes; 50 µL (equal to half the volume of cell culture medium in each well) of CellTiter-Glo working solution was added to each well; The culture plate was shaken on an orbital shaker for 2 minutes to induce cell lysis; The plate was then left at room temperature for 10 minutes to stabilize the luminescent signal; The luminescent signal was detected using a SpectraMax Paradigm plate reader; Cell viability assay was conducted using CellTiter-Glo luminescence method.
(§8) Data analysis: The corresponding […] value (RLU) for each well was obtained from SpectraMax Paradigm readings. […] The inhibition rates corresponding to compounds at different concentrations were calculated in Excel, and the inhibition rate curves were plotted using GraphPad Prism software to calculate relevant parameters, including the maximum and minimum inhibition rates of the cells and the IC50 value.

Ba/F3-TEL-TRKB = test: as above; format: cell-based; details: Mus musculus, BaF3; 72 hours; read-out: Half maximal inhibitory concentration IC50 for cells Ba/F3-TEL-TRKB
Protocol: as §7, §8

[6] = In vivo pharmacokinetic testing in mice; set-up: species or system male CD-1 mice; details: mouse, IV, 0.5 mg/kg, plasma
Protocol: The objective was to study the pharmacokinetic behavior of the compounds of the present disclosure in mice, using male CD-1 mice aged 7 to 9 weeks as test animals. The concentrations of the compounds in plasma at different time points after a single intravenous injection (IV) and oral gavage (PO) administration of the compound were determined using LC/MS/MS.
Two groups of healthy mice (fasted) were administered the compounds via intravenous injection (IV) and oral gavage (PO), with 2 mice in each group.
The test compounds were mixed with the solvent, vortexed, and sonicated to prepare a clear solution with a concentration of 0.5 mg/mL and a pH of 3.3-3.6. The intravenous injection dose for the mice was 1.0 mg/kg. […] The test compounds were mixed with the solvent, vortexed, and sonicated to prepare a homogeneous suspension with particles at a concentration of 0.5 mg/mL and a pH of 6.8-7.0. The oral gavage dose for the mice was 5.0 mg/kg.
The test compound was mixed with the solvent, vortexed, and sonicated to prepare a clear solution with a concentration of 1.0 mg/mL. The intravenous injection dose for the mice was 1.0 mg/kg. […] The test compound was mixed with the solvent, vortexed, and sonicated to prepare a homogeneous suspension with particles at a concentration of 0.5 mg/mL. The oral gavage dose for the mice was 5.0 mg/kg.
The test compounds were mixed with the solvent, vortexed, and sonicated to prepare a clear solution with a concentration of 0.1 mg/mL. The intravenous injection dose for the mice was 0.5 mg/kg. […] The test compound was mixed with the solvent, vortexed, and sonicated to prepare a homogeneous suspension with particles at a concentration of 0.5 mg/mL and a pH of 7.08. The oral gavage dose for the mice was 5.0 mg/kg. After administration, the whole blood was collected at the time points of 0.083 hours, 0.25 hours, 0.5 hours, 1.0 hour, 2.0 hours, 4.0 hours, 8.0 hours, 12.0 hours, and 24.0 hours. Plasma was prepared from the whole blood and analyzed for drug concentration by LC-MS/MS. The pharmacokinetic parameters were calculated using Phoenix WinNonlin 6.3.

CYP2C9 = molecular target: T4, CYP2C9 (Homo sapiens, UniProt P11712); test: Cytochrome P450 isozyme inhibitory activity test (human liver microsomes); format: in vitro ADME; details: human liver microsomes 0.1 mg/mL; probe substrate Diclofenac
T4 construct: Mixed human liver microsomes (HLM) purchased from Corning Inc; tissue Corning Inc; host or cells: pooled human liver microsomes
Protocol: To test the inhibitory activity of the compounds of the present disclosure on different subtypes of human liver microsomal cytochrome P450 isozymes.
Mixed human liver microsomes (HLM) purchased from Corning Inc. (Steuben, New York, USA); Diclofenac as the probe substrate (10 µM); Sulfaphenazole as the positive control inhibitor; 4'-Hydroxydiclofenac as the metabolite
Preparation of test system working solution: Human liver microsomes (HLM): HLM stock solution at 20.0 mg/mL, working solution at 0.2 mg/mL, final concentration at 0.1 mg/mL; Potassium phosphate buffer: 100 mM; Cofactor working solution: Magnesium chloride, NADP (nicotinamide adenine dinucleotide phosphate), G6P (glucose-6-phosphate), G6PDH (glucose-6-phosphate dehydrogenase), and phosphate buffer or magnesium chloride, NADPH (reduced nicotinamide adenine dinucleotide phosphate) powder, and potassium phosphate buffer; prepared into cofactor working solution at appropriate ratios;
Stop solution: Isotope-labeled 4'-hydroxydiclofenac-d4 stock solution prepared in methanol, then prepared into stop solution using acetonitrile.
In the substrate-free control sample wells of the reaction plate, 100 µL of a mixture of human liver microsome and potassium phosphate buffer was added. At the zero-time point sample wells, 98 µL of a mixture of the human liver microsome and potassium phosphate buffer was added. In the no-inhibitor control (NIC), test compound, and positive control inhibitor sample wells of the reaction plate, 100 µL of a mixture of the human liver microsome and substrate was added. From the dilution plate, 2 µL of blank solvent, test compound working solution (three parallels), and positive control inhibitor working solution (two parallels) were added to the reaction plate. The reaction plate was preheated at 37.0°C for 10 minutes. […] The concentration of specific metabolites in the samples was detected using the liquid chromatography-tandem mass spectrometry (LC-MS/MS) method. […] The IC50 values were calculated using a three-parameter or four-parameter inverse log equation.

CYP3A4-M = molecular target: T5, CYP3A4-M (Homo sapiens, UniProt P08684); test: as above; format: in vitro ADME; details: human liver microsomes 0.1 mg/mL
T5 construct: Mixed human liver microsomes (HLM) purchased from Corning Inc; tissue Corning Inc; host or cells: pooled human liver microsomes
T5 sequence (P08684 whole entry): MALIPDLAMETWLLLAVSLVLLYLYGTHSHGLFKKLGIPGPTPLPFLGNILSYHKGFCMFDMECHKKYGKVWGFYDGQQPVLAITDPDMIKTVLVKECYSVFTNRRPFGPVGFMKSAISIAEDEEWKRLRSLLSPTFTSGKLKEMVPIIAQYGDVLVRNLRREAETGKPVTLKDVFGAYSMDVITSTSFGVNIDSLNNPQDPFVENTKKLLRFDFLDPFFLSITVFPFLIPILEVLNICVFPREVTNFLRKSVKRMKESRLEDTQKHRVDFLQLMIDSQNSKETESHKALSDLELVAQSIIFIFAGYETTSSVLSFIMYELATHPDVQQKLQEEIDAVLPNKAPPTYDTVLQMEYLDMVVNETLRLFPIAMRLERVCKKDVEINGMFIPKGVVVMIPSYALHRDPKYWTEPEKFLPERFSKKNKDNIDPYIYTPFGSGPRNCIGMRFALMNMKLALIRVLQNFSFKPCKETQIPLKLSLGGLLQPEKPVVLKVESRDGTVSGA

T2 sequence (Q16620 32-822): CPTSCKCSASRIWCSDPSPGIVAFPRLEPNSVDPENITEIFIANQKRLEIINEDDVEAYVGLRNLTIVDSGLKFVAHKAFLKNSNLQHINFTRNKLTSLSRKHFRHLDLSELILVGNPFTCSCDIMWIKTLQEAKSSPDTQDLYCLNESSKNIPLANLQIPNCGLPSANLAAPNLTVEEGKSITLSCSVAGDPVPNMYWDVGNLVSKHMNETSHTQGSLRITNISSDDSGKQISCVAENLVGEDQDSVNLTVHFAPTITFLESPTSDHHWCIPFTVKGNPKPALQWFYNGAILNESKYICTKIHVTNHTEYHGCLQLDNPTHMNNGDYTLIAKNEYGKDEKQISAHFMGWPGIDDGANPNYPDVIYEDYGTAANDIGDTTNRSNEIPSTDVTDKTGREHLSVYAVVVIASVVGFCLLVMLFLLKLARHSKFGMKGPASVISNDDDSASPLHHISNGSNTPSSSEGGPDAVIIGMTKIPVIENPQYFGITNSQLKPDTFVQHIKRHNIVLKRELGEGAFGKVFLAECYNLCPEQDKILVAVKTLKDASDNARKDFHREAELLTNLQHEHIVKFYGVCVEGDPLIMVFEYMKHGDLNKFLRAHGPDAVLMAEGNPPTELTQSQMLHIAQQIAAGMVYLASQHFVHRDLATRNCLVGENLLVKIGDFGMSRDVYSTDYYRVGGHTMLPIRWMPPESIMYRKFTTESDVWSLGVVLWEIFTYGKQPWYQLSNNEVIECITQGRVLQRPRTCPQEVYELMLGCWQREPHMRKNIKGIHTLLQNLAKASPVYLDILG
T1 sequence (Q9UM73 19-1620 L1196M/G1202R): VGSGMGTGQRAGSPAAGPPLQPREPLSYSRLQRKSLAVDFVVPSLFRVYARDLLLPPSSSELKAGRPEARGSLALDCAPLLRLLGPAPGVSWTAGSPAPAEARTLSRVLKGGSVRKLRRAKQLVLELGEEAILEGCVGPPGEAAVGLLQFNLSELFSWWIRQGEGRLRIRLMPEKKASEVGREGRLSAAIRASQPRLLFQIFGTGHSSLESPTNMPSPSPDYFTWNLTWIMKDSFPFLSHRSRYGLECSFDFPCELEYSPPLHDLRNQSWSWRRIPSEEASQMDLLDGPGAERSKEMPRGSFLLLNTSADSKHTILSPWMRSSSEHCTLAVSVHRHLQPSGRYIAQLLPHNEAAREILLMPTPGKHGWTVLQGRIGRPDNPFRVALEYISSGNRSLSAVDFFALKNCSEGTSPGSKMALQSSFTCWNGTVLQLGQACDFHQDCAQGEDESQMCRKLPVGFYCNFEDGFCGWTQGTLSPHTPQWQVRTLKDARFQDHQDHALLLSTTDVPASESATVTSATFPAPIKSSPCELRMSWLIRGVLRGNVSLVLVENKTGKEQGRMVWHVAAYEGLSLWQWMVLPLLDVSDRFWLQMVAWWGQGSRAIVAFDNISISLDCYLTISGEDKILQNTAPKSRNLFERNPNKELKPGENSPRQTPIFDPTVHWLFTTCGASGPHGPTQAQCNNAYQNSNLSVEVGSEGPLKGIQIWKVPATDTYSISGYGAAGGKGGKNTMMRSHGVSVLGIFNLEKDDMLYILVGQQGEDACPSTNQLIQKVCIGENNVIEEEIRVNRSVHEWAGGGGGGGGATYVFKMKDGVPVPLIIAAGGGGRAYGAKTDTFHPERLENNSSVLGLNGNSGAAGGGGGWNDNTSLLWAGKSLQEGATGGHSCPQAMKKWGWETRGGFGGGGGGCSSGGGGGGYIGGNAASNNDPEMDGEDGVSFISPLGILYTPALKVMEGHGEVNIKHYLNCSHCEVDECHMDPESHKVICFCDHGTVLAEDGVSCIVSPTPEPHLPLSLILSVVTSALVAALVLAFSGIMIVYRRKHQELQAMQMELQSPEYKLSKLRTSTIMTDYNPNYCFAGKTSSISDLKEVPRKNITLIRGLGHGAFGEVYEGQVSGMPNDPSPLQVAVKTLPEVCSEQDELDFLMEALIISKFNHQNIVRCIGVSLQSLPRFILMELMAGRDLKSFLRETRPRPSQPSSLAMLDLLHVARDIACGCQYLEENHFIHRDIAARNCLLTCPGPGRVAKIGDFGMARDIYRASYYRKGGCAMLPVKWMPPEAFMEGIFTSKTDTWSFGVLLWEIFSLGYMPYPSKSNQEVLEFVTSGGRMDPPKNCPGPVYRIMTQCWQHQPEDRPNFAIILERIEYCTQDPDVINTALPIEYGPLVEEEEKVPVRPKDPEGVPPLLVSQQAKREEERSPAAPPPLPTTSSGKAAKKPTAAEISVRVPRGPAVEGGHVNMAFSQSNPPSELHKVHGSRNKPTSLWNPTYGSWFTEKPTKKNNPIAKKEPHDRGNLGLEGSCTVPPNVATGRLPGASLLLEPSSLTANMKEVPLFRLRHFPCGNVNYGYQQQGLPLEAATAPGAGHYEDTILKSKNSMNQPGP
T4 sequence (P11712 whole entry): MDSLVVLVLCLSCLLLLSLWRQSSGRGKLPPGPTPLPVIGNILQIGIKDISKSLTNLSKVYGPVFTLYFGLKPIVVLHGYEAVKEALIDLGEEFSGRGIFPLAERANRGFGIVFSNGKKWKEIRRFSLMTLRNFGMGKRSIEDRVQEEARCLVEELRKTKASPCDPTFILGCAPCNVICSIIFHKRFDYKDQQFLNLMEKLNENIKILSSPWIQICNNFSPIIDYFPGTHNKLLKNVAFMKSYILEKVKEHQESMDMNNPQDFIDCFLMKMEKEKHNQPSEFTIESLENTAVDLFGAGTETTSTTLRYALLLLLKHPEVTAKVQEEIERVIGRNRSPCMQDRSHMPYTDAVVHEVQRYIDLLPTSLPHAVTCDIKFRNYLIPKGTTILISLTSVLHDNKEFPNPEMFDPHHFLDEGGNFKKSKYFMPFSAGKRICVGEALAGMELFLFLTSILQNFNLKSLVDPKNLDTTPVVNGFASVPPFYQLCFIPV
T3 sequence (Q9UM73 19-1620 G1202R): as the sequence (Q9UM73 19-1620 L1196M/G1202R) above, with M1178L counted along it

Row | SMILES | IC50 (ALK(G1202R/L1196M) [1]) [nM] | IC50 (TRKB [2]) [nM] | IC50 (ALK(G1202R)) [nM] | IC50 (ROS1) [nM] | IC50 (ALK(G1202R/L1196M) [3]) [nM] | IC50 (TRKB [4]) [nM] | IC50 [5] [nM] | selectivity: inhibition against ALK-mutant cells versus TRKB phenotypic cells ([5]; stronger inhibition of ALK-mutant cells, relatively weaker of TRKB phenotypic cells) | IC50 (Ba/F3-TEL-TRKB) [nM] | Vd ([6]; read-out: Apparent volume of distribution Vd) [L/kg] | AUC(0-t) ([6]; read-out: Area under the curve AUC0-last) [µM·h] | half-life ([6]; read-out: Half-life T1/2 (converted)) [min] | IC50 (CYP2C9) [nM] | IC50 (CYP3A4-M) [µM]
1 | CON=C1NC(C)(C)COc2ncc(F)cc2CN2c3nc4c1cnn4cc3OC[C@H]2C(F)F [Compound 005] | 5.2 | 1.2 | 3.8 | 0.6 | – | – | – | – | – | – | – | – | – | –
2 | C#Cc1nn2cc3c4nc2c1C(=O)NC(C)(C)COc1ccc(F)cc1CN4[C@H](C(F)F)CO3 [Compound 019] | – | – | – | – | 0.9 | 2.5 | 1.7 | excellent selectivity | 3.5 | 0.274 | 15.2 | 76.8 | – | –
3 | N#Cc1nn2cc3c4nc2c1C(=O)NC1(CCC1)COc1ccc(F)cc1CN4[C@H](C(F)F)CO3 [Compound 022] | – | – | – | – | 7.8 | 24.7 | 4.2 | – | 2.3 | – | – | – | 460 | > 50
4 | N#Cc1nn2cc3c4nc2c1C(=O)N[C@H]1C[C@H](C1)Oc1ccc(F)cc1CN4[C@H](C(F)F)CO3 [Compound 024] | – | – | – | – | 2.3 | 5.3 | 1.6 | – | 0.8 | – | – | – | 2120 | > 50

— patent publication EP4559919A1, “TRICYCLIC-CONTAINING MACROCYCLIC COMPOUND AND USE THEREOF” (Medshine Discovery Inc., priority 2022, dated 2024)
